The values that follow come from patent US4614746A, “5-fluorobenzonitrile derivatives for increasing the lean meat to fat ratio and/or enhancing the growth rate of warm-blooded animals” (American Cyanamid Company, priority 1985, dated 1986).

SMILES strings stand for the structures.

In test [1] the test system is CFI female mice. Kind of test: Antilipogenic evaluation of test compounds - mouse study (fat pad and body weight, 12-day feeding). The format is in vivo. Particulars: 12 days. As to the method:
CFI female mice from Carworth Farms are received when they are six-weeks old. They are housed ten to a cage in air-conditioned rooms (22° C. to 25° C.) with automatically-controlled lights, 14 hours on and ten hours off. The basal diet used in these studies is Purina Laboratory Chow (see description below) which is supplied ad libitum. The following is a description of the diet to which the growth-promoting compounds were added. Meat and bone meal, dried skimmed milk, wheat germ meal, fish meal, animal liver meal, dried beet pulp, ground extruded corn, ground oat groats, soybean meal, dehydrated alfalfa metal, cane molasses, animal fat preserved with BHA, vitamin B12 supplement, calcium pantothenate, choline chloride, folic acid, riboflavin supplement, brewer's dried yeast, thiamin, niacin, vitamin A supplement, D-activated plant sterol, vitamin E supplement, calcium carbonate, dicalcium phosphate, iodized salt, ferric ammonium citrate, iron oxide, manganous oxide, cobalt carbonate, copper oxide, zinc oxide. Water is also allowed ad libitum. Thirteen days after arrival, the mice are weighed in groups of ten and assigned at random to the different treatments. Each of the treatments is tested in three replicates, i.e., in three cages of ten mice each. There are ten cages of ten control mice each. Drugs are mixed in the diet at the dosage level indicated. Feed and water are offered ad libitum for a 12-day test period. Feed spilled is collected during the test period. At the end of the test period, the collected feed is weighed, and the mean feed consumption per cage of ten mice is determined for each treatment. The mice are weighed as a group of ten, and the weight gain determined. The mice are sacrificed by cervical dislocation. The right uterine fat pad of each mouse is removed. The fat pads for each cage of ten mice are weighed as a unit. Reduction in fat pad weights of animals is generally indicative of a reduction of total body fat of the treated animals.

Test [2] has as its system CFI female mice. Kind of test: Antilipogenic evaluation of test compounds - mouse study (Example 6, procedure of Example 4). It is filed as in vivo. As to the method:
CFI female mice from Carworth Farms are received when they are six-weeks old. They are housed ten to a cage in air-conditioned rooms (22° C. to 25° C.) with automatically-controlled lights, 14 hours on and ten hours off. The basal diet used in these studies is Purina Laboratory Chow (see description below) which is supplied ad libitum.
Thirteen days after arrival, the mice are weighed in groups of ten and assigned at random to the different treatments. Each of the treatments is tested in three replicates, i.e., in three cages of ten mice each. There are ten cages of ten control mice each. Drugs are mixed in the diet at the dosage level indicated. Feed and water are offered ad libitum for a 12-day test period. Feed spilled is collected during the test period. At the end of the test period, the collected feed is weighed, and the mean feed consumption per cage of ten mice is determined for each treatment. The mice are weighed as a group of ten, and the weight gain determined. The mice are sacrificed by cervical dislocation. The right uterine fat pad of each mouse is removed. The fat pads for each cage of ten mice are weighed as a unit. Reduction in fat pad weights of animals is generally indicative of a reduction of total body fat of the treated animals.
Following the procedure of Example 4, the analogues of the compounds of the invention in the subject Application are evaluated as antilipogenic agents.

Consider `CCNCC(O)c1cc(F)cc(C#N)c1` (stereo not drawn) [drawing 16], for which the “% Change in Body Weight vs controls” value with CFI female mice [1] (50 ppm in diet) was “+18.8%”; in the test with CFI female mice [1] (100 ppm in diet) it was -4.1%; with CFI female mice [1] (200 ppm in diet), “+25.3%”. In addition, the “% Reduction in Fat Pad Weight vs Controls” value (“% Reduction” below) in the test with CFI female mice [1] (50 ppm in diet) is recorded as “+4.3%”; in the test on CFI female mice [1] (100 ppm in diet), -33.3%; with CFI female mice [1] (200 ppm in diet), -37.9%.

In the case of `CC(C)(C)NCC(O)c1cc(F)cc(C#N)c1` (stereo not drawn) [drawing 24], the “Mouse Test Fat Pad Weight % ± Control” value is given as -38.4% in the test with CFI female mice [2] (100 ppm) and -42.9% with CFI female mice [2] (200 ppm).

Regarding `CC(C)N(CC(O)c1cc(F)cc(C#N)c1)C(C)C` (stereo not drawn) [drawing 17], in the test with CFI female mice [1] (200 ppm in diet), the “% Change in Body Weight vs controls” value is given as “+19.05%” and the “% Reduction” value is listed as -19.36%. In addition, in the test with CFI female mice [1] (second dose, not given), the “% Change in Body Weight vs controls” value was -2.38% and the “% Reduction” value is -15.39%.

Consider `CC(C)NCC(O)c1cc(F)cc(C#N)c1` (stereo not drawn) [3-fluoro-5-[1-hydroxy-2-(isopropylamino)ethyl]-benzonitrile], for which the “effectiveness as an antilipogenic agent” value with CFI female mice [2] (100 ppm or 200 ppm in the diet, versus related analogues) is recorded as “generally more effective as an antilipogenic agent than its related analogues”.

Regarding `CC(C)(C)NCC(O)c1cc(F)cc(C#N)c1` (stereo not drawn) [drawing 13], the “% Change in Body Weight vs controls” value in the test with CFI female mice [1] (25 ppm in diet) is reported as “+96.61%”; in the test on CFI female mice [1] (50 ppm in diet) it was “+80.51%”; in the test on CFI female mice [1] (100 ppm in diet), “+65.25%”; in the test with CFI female mice [1] (200 ppm in diet) it was “+55.93%”. Further, the “% Reduction” value with CFI female mice [1] (25 ppm in diet) is given as -8.97%; with CFI female mice [1] (50 ppm in diet), -14.04%; with CFI female mice [1] (100 ppm in diet), -29.65%; in the test with CFI female mice [1] (200 ppm in diet) it was -38.13%.

`CC(C)NCC(O)c1cc(F)cc(C#N)c1` (stereo not drawn) [drawing 14]: the “% Change in Body Weight vs controls” value in the test with CFI female mice [1] (3 ppm in diet) was “+0.73%”; in the test on CFI female mice [1] (6 ppm in diet), “+40.88%”; with CFI female mice [1] (12.5 ppm in diet), “+26.28%”; in the test with CFI female mice [1] (25 ppm in diet), “+29.20%”; in the test with CFI female mice [1] (50 ppm in diet) it was “+78.10%”; in the test with CFI female mice [1] (100 ppm in diet) it was “+56.93%”. In addition, in the test on CFI female mice [1] (200 ppm in diet), the “% Change in Body Weight vs controls” value is given as “+88.32%”. Besides, the “% Reduction” value in the test on CFI female mice [1] (6 ppm in diet) is on record as “+5.91%”; with CFI female mice [1] (12.5 ppm in diet) it was -11.76%; in the test with CFI female mice [1] (25 ppm in diet), “+9.76%”; in the test on CFI female mice [1] (50 ppm in diet), “+9.90%”; in the test on CFI female mice [1] (100 ppm in diet) it was -17.71%; in the test with CFI female mice [1] (200 ppm in diet), -33.29%. In addition, the “Mouse Test Fat Pad Weight % ± Control” value is recorded as -17.7% with CFI female mice [2] (100 ppm) and -33.3% with CFI female mice [2] (200 ppm).

As for `CCCC(C)NCC(O)c1cc(F)cc(C#N)c1` (stereo not drawn) [drawing 15], the “% Change in Body Weight vs controls” value in the test on CFI female mice [1] (50 ppm in diet) is reported as “+15.9%”; in the test on CFI female mice [1] (100 ppm in diet), “+1.2%”; in the test with CFI female mice [1] (200 ppm in diet), “+22.4%”. In addition, the “% Reduction” value in the test on CFI female mice [1] (50 ppm in diet) is -5.6%; in the test with CFI female mice [1] (100 ppm in diet) it was -15.5%; with CFI female mice [1] (200 ppm in diet) it was -22.8%.
